According to US20050203059A1, “Methods and compositions for treatment of ischemia” (priority 2002, published 2005):
pEC50: −log10 of the molar value.

Experiments:
[1] = system: rat hippocampi cells; assay: GSK3 inhibitor protection of rat hippocampi cells from glutamate induced damage (Trypan Blue count); assay type: cell-based; parameters: Cells Surviving (%) Without Glutamate (control): concentration or dose not given beside the values; conditions: rat hippocampal neurons, average of 1 to 4 replications; for Cells Surviving (%) With Glutamate: 200 μM glutamic acid for 5 minutes, counted 20 to 24 hours later; for Cells Surviving (%) Without Glutamate (control): not exposed to glutamic acid
Description: Hippocampi were dissected from embryonic day 18-19 rats. The tissue was collected in Hibernate™ media (Gibco BRL) and minced into 1 mm pieces. The tissue was dissociated using the Papain Dissociation System (Worthington Biochemical Corporation). Following isolation the cells were suspended in serum-free media composed of Neurobasal™ (Gibco BRL), 2% B27 supplement (Gibco BRL), L-glutamine and antibiotics. Cells were plated in 12 well plates tissue culture dishes coated with poly-L-lysine at a concentration of 7.5×10^4 cells per well. Following 10-14 days at 37° C. in 5% CO2, the GSK3 inhibitor compounds set forth below were added. Four to eight hours following compound addition, the conditioned media was removed from the cells and the cultures were stored at 37° C. […] The cultures were then either exposed for 5-minutes at room temperature to 200 μM glutamic acid in the same HBSS, or not exposed to glutamic acid as a control. Following exposure, the cultures were rinsed three times with the buffer and then returned to their original conditioned media containing the GSK3 inhibitor compounds. Twenty to 24 hours following glutamic acid exposure, the cultures were rinsed in HBSS and exposed for 10 minutes to Trypan Blue. This dye is taken up by dead cells. The cultures were rinsed then fixed for 30 minutes in 4% paraformaldehyde. The number of live and dead (blue) large neurons are counted (at least 200 cells from each well) by phase contrast microscopy and photographed, and the percentage of surviving cells was determined. […] The results are shown in the following Table 2 as the average of 1 to 4 replications: […]

[2] = system: GSK3; assay: Cell-based glycogen synthase assay for GSK3 inhibitory activity (CHO-HIRC cells); conditions: read-out: EC50 (glycogen synthase activity stimulated to 50% of the maximal level), 20 minutes incubation
Description: Likewise, the ability of GSK3 inhibitor compounds to potentiate insulin signaling by activating glycogen synthase can be readily ascertained using a cell-based glycogen synthase activity assay. This assay employs cells that respond to insulin stimulation by increasing glycogen synthase activity, such as the CHO-HIRC cell line, which overexpresses wild-type insulin receptor (˜100,000 binding sites/cell). […] The assay can be carried out by incubating serum-starved CHO-HIRC cells in the presence of various concentrations of compounds of the present invention in the medium, followed by cell lysis at the end of the incubation period. […] The concentration of candidate GSK3 inhibitor that increased glycogen synthase activity to half of its maximal level (i.e., the EC50) can be calculated by fitting a four parameter sigmoidal curve using routine curve fitting methods that are well known to those having ordinary skill in the art.
CHO-HIRC cells are maintained in 10 cm tissue culture plates in Ham's F12 medium/10% dialyzed fetal bovine serum. Cells from a confluent 10 cm plate are harvested and divided into the 6 wells of a 6-well tissue culture plate to a final volume of 2 ml of medium. The cells are left to grow at 37° C. for 24 hours. The cells are then washed three times in Ham's F12 medium containing no fetal bovine serum, and finally the cells are left for a further 24 hours at 37° C. in 2 ml of the serum-free medium.
At the end of this time, 20 μl of compound dissolved in DMSO is added to each well and incubated at 37° C. After 20 minutes the medium is removed and the cells are washed once in PBS at room temperature and then rapidly frozen in the plates in liquid nitrogen. […] Cells are scraped from the plates and frozen in Eppendorf tubes on dry ice. Lysates are then thawed and refrozen on dry ice.
After rethawing, lysates are spun at 14,000 g for 15 minutes. The supernatants are then removed and stored on ice. […] Reactions are incubated at 30° C. for 30 minutes and then spotted onto a 2 cm square 31ET chromatograph paper (Whatman).
Filters are added to 5 ml of liquid scintillant and counted in a liquid scintillation counter. The percentage of the total glycogen synthase that is active in any lysate is expressed as 100× (cpm minus glucose-6-phosphate)/(cpm plus glucose-6-phosphate). Such values are determined in duplicate for 5 different concentrations of compound and for DMSO alone, and the values are then plotted against the logarithm of the concentration. The concentration of compound which stimulates glycogen synthase activity to 50% of the maximal level is determined by fitting a sigmoidal curve to the plotted data. The maximal level is defined as that level to which glycogen synthase activity tends asymtotically as the concentration of test compound increases substantially beyond the EC50.

[3] = Blood brain barrier penetration / plasma drug levels after intravenous dosing in CD rats; assay type: in vivo, rat; conditions: 10 mg/kg intravenously; for Brain (at end of study) drug level: brains isolated at 150 minutes post administration; for AUC / Cmax / Tmax / half-life / Vd / concentration at 0 min / concentration at 7 min / concentration at 20 min / concentration at 40 min / concentration at 70 min / concentration at 100 min / concentration at 150 min: rat, plasma, iv; for Vd: read-out: Vss
Description: GSK3 inhibitor blood brain barrier penetration may generally be measured by administering a GSK3 inhibitor compound formulated in 15% captisol/20 mM sodium citrate to a final dose of 10 mg/kg intravenously through a jugular catheter into 250 g CD rats. At 150 minutes post administration brains from the rats were isolated and fast frozen. GSK3 inhibitor plasma levels in the isolated material were established using standard techniques.

CN1CCN(c2cnc(NCCNc3ccc([N+](=O)[O-])c(N)n3)nc2-c2ccc(Cl)cc2Cl)CC1 [N]
Cells Surviving (%) With Glutamate [1]: 67%
Cells Surviving (%) Without Glutamate (control) [1]: 91%
pEC50 [2]: 7.27

O=[N+]([O-])c1ccc(NCCNc2ncc(-c3ncc[nH]3)c(-c3ccc(Cl)cc3Cl)n2)nc1 [J]
Cells Surviving (%) With Glutamate [1]: 57%
Cells Surviving (%) Without Glutamate (control) [1]: 95%
pEC50 [2]: 6.43

Nc1nc(NCCNc2ncc(-c3ncc[nH]3)c(-c3ccc(F)cc3Br)n2)ccc1[N+](=O)[O-] [Compound S]
Cells Surviving (%) With Glutamate [1]: 50%
Cells Surviving (%) Without Glutamate (control) [1]: 95%
pEC50 [2]: 6.66

N#Cc1ccc(-c2nc(NCCNc3ccc([N+](=O)[O-])cn3)ncc2-n2ccnc2)cc1 [T]
Cells Surviving (%) With Glutamate [1]: 50%
Cells Surviving (%) Without Glutamate (control) [1]: 95%
pEC50 [2]: 5.89

IGF1: IGF1, used as a control in the rat hippocampi cell survival test
Cells Surviving (%) With Glutamate [1]: 51%
Cells Surviving (%) Without Glutamate (control) [1]: 93%

Nc1nc(NCCNc2ncc(-c3ncc[nH]3)c(-c3ccc(Cl)cc3Cl)n2)ccc1[N+](=O)[O-] [L]
Cells Surviving (%) With Glutamate [1]: 59%
Cells Surviving (%) Without Glutamate (control) [1]: 90%
pEC50 [2]: 6.59

COCCNC(=O)Cn1c(=O)n(C2CCN(C(=O)N3CCc4ccccc4C3)CC2)c2ccccc21 [E]
Cells Surviving (%) With Glutamate [1]: 73%
Cells Surviving (%) Without Glutamate (control) [1]: 88%

Nc1nc(NCCNc2ncc(-n3ccccc3=O)c(-c3ccc(Cl)cc3Cl)n2)ccc1[N+](=O)[O-] [R]
Cells Surviving (%) With Glutamate [1]: 61%
Cells Surviving (%) Without Glutamate (control) [1]: 92%
pEC50 [2]: 7.85

CNCC(=O)Nc1cnc(NCCNc2ccc([N+](=O)[O-])c(N)n2)nc1-c1ccc(Cl)cc1Cl [P]
Cells Surviving (%) With Glutamate [1]: 55%
Cells Surviving (%) Without Glutamate (control) [1]: 91%
pEC50 [2]: 6.15

Nc1nc(NCCNc2ncc(-n3cc(Cl)ccc3=O)c(-c3ccc(Cl)cc3Cl)n2)ccc1[N+](=O)[O-] [O]
Cells Surviving (%) With Glutamate [1]: 61%
Cells Surviving (%) Without Glutamate (control) [1]: 94%
pEC50 [2]: 6.88

Cc1ccc(-c2nc(NCCNc3ccc([N+](=O)[O-])c(N)n3)ncc2-c2ncc[nH]2)c(Br)c1 [G]
Cells Surviving (%) With Glutamate [1]: 65%
Cells Surviving (%) Without Glutamate (control) [1]: 94%
pEC50 [2]: 7.28
CL [3]: 52 [ml/min]/kg
Brain (at end of study) drug level [3]: <LOQ
AUC [3]: 3180 ng·h/mL
Cmax [3]: 4600 ng/mL
Tmax [3]: ~0 h
half-life [3]: 31 min
Vd [3]: 2.3 L/kg
concentration at 0 min [3]: < 20 ng/mL
concentration at 7 min [3]: 4050 ng/mL
concentration at 20 min [3]: 3200 ng/mL
concentration at 40 min [3]: 1330 ng/mL
concentration at 70 min [3]: 796 ng/mL
concentration at 100 min [3]: 414 ng/mL
concentration at 150 min [3]: 113 ng/mL

Nc1nc(NCCNc2ncc(-c3ncc[nH]3)c(-c3ccc(F)cc3Cl)n2)ccc1[N+](=O)[O-] [X]
Cells Surviving (%) With Glutamate [1]: 50%
Cells Surviving (%) Without Glutamate (control) [1]: 93%
pEC50 [2]: 6.37

Nc1nc(NCCNc2ncc(-n3ccnc3)c(-c3ccc(Cl)cc3Cl)n2)ccc1[N+](=O)[O-] [Y]
Cells Surviving (%) With Glutamate [1]: 61%
Cells Surviving (%) Without Glutamate (control) [1]: 94%
pEC50 [2]: 7.12

FC(F)(F)c1ccc(NCCNc2ncc(-c3ncc[nH]3)c(-c3ccc(Cl)cc3Cl)n2)nc1 [V]
Cells Surviving (%) With Glutamate [1]: 49%
Cells Surviving (%) Without Glutamate (control) [1]: 94%
pEC50 [2]: 5.91

FC(F)(F)c1ccc(NCCNc2ccc(-c3ncc[nH]3)c(-c3ccc(Cl)cc3Cl)n2)nc1 [F]
Cells Surviving (%) With Glutamate [1]: 51%
Cells Surviving (%) Without Glutamate (control) [1]: 96%

N#Cc1ccc(NCCNc2ncc(-c3ccncc3)c(-c3ccc(Cl)cc3Cl)n2)nc1 [I]
Cells Surviving (%) With Glutamate [1]: 56%
Cells Surviving (%) Without Glutamate (control) [1]: 94%
pEC50 [2]: 6.74
CL [3]: 114 [ml/min]/kg
Brain (at end of study) drug level [3]: <LOQ
AUC [3]: 145 ng·h/mL
Cmax [3]: 1200 ng/mL
Tmax [3]: ~0 h
half-life [3]: 42 min
Vd [3]: 6.8 L/kg
concentration at 0 min [3]: < 20 ng/mL
concentration at 7 min [3]: 1190 ng/mL
concentration at 20 min [3]: 1160 ng/mL
concentration at 40 min [3]: 614 ng/mL
concentration at 70 min [3]: 440 ng/mL
concentration at 100 min [3]: 358 ng/mL
concentration at 150 min [3]: 106 ng/mL

Nc1nc(NCCNc2ncc(CO)c(-c3ccc(Cl)cc3Cl)n2)ccc1[N+](=O)[O-] [K]
Cells Surviving (%) With Glutamate [1]: 73%
Cells Surviving (%) Without Glutamate (control) [1]: 86%
pEC50 [2]: 6.83

CN(CCNc1ccc([N+](=O)[O-])c(N)n1)c1ncc(-c2ncc[nH]2)c(-c2ccc(Cl)cc2Cl)n1 [Q]
Cells Surviving (%) With Glutamate [1]: 67%
Cells Surviving (%) Without Glutamate (control) [1]: 95%
pEC50 [2]: 7.77

Nc1nc(NCCNc2ncc(N3CCOCC3)c(-c3ccc(Cl)cc3Cl)n2)ccc1[N+](=O)[O-] [U]
Cells Surviving (%) With Glutamate [1]: 62%
Cells Surviving (%) Without Glutamate (control) [1]: 93%
pEC50 [2]: 7.13

Nc1nc(NCCNc2ncc(N3C(=O)CCC3=O)c(-c3ccc(Cl)cc3Cl)n2)ccc1[N+](=O)[O-] [M]
Cells Surviving (%) With Glutamate [1]: 61%
Cells Surviving (%) Without Glutamate (control) [1]: 87%
pEC50 [2]: 7.07

Nc1nc(NCCNc2ncc(NC(=O)NCCN3CCOCC3)c(-c3ccc(Cl)cc3Cl)n2)ccc1[N+](=O)[O-] [D]
Cells Surviving (%) With Glutamate [1]: 60%
Cells Surviving (%) Without Glutamate (control) [1]: 96%
pEC50 [2]: 5.52

O=[N+]([O-])c1ccc(NCCNc2ccc(-c3ncc[nH]3)c(-c3ccc(Cl)cc3Cl)n2)nc1 [H]
Cells Surviving (%) With Glutamate [1]: 67%
Cells Surviving (%) Without Glutamate (control) [1]: 94%
pEC50 [2]: 6.92

Nc1nc(NCCNc2ncc(-n3cccn3)c(-c3ccc(Cl)cc3Cl)n2)ccc1[N+](=O)[O-] [W]
Cells Surviving (%) With Glutamate [1]: 61%
Cells Surviving (%) Without Glutamate (control) [1]: 94%
pEC50 [2]: 7.00
